This is an account of results in article PMC4494766 (Monatshefte Fur Chemie, 2011).

Broadly, the MIC is the lowest concentration that inhibits growth of the organism. Lower therefore signals greater potency.

≈ marks a conversion by molar mass, not a printed value.

The assay deals with M. tuberculosis wild-type strain sp. 210 resistant to PAS, INH, ETB and RFP. Kind of assay: Tuberculostatic activity, test-tube successive dilution in Youmans' medium. Format: cell-based. To be noted: Mycobacterium tuberculosis.
The compound `CSC(=NNC(=O)c1ccccc1Cl)SC` [Compound 2, Dimethyl 2-chlorobenzoylcarbonohydrazonodithioate] yielded an MIC of 50 µg/mL (≈ 182 µM).
Regarding `CSC(=NNC(=O)c1ccc(Cl)cc1)SC` [Compound 3, Dimethyl 4-chlorobenzoylcarbonohydrazonodithioate], 25 µg/mL (≈ 91 µM) was the least that counted as inhibitory (MIC).
As for `CSC(=NNC(=O)c1ccc(Cl)cc1Cl)SC` [Compound 4, Dimethyl 2,4-dichlorobenzoylcarbonohydrazonodithioate], the figure is 50 µg/mL (≈ 162 µM).
The same measure for `CSC(=NNC(=O)c1ccc(Cl)c(Cl)c1)SC` [Compound 5, Dimethyl 3,4-dichlorobenzoylcarbonohydrazonodithioate]: 12.5 µg/mL (≈ 40.4 µM); for `CSC(=NNC(=O)c1ccccc1[N+](=O)[O-])SC` [Compound 6, Dimethyl 2-nitrobenzoylcarbonohydrazonodithioate]: 50 µg/mL (≈ 175 µM); for `CSC(=NNC(=O)c1ccccc1O)SC` [Compound 8, Dimethyl 2-hydroxybenzoylcarbonohydrazonodithioate]: 25 µg/mL (≈ 97.5 µM).
As for `CSC(=NNC(=O)c1cccc(O)c1)SC` [Compound 9, Dimethyl 3-hydroxybenzoylcarbonohydrazonodithioate], the figure is 25 µg/mL (≈ 97.5 µM).
Consider `CSC(=NNC(=O)c1ccc(O)cc1)SC` [Compound 10, Dimethyl 4-hydroxybenzoylcarbonohydrazonodithioate], for which the MIC is 25 µg/mL (≈ 97.5 µM).
In turn, `COc1ccc(C(=O)NN=C(SC)SC)cc1` [Compound 11, Dimethyl 4-methoxybenzoylcarbonohydrazonodithioate] yielded an MIC of 25 µg/mL (≈ 92.5 µM).
The same measure for `COc1cc(C(=O)NN=C(SC)SC)cc(OC)c1OC` [Compound 12, Dimethyl 3,4,5-trimethoxybenzoylcarbonohydrazonodithioate]: 50 µg/mL (≈ 151 µM); for `COc1ccc(CC(=O)NN=C(SC)SC)cc1OC` [Compound 13, Dimethyl 2-(3,4-dimethoxyphenyl)acetylcarbonohydrazonodithioate]: 50 µg/mL (≈ 159 µM).
